Data on two compounds can be found in article PMC2074523, “Bioavailability and pharmacokinetics of oral topotecan: a new topoisomerase I inhibitor” (British Journal of Cancer, 1996).

Details of series [1]: method as in unpublished data. The settings on record: mean (s.d. 16.3), ref unpublished data; cited from earlier work.
A short description of series [2]: Two-part crossover bioavailability and pharmacokinetics study of oral vs i.v. topotecan in patients with solid tumours (plasma, HPLC with fluorescence detection). The settings on record: for Vd: 1.5 mg m-2, volume of distribution at steady state (Vd,ss). From the text: British Journal of Cancer (1996) 73, 1268-1271 ff* (C) 1996 Stockton Press All rights reserved 0007-0920/96 $12.00 Bioavailability and pharmacokinetics of oral topotecan: a new topoisomerase I inhibitor JHM Schellens', GJ Creemers', JH Beijnen2, H Rosing2, M de Boer-Dennert', M McDonald3, B Davies4 and J Verweij' 'Department of Medical Oncology, Rotterdam Cancer Institute, 3075 EA Rotterdam, The Netherlands; 2Slotervaart Hospital, Amsterdam, The Netherlands; 3SmithKline & Beecham, UK; 4SmithKline & Beecham, USA. […] The oral dose of 1.5 mg m 2 was administered as a drinking solution of 200 ml on day 1. The i.v. dose of 1.5 mg m-2 was administered as a 30 min continuous infusion on day 2. The bioavailability was calculated as the ratio of the oral to i.v. area under the curve (AUC) calculated up to the last measured time point. […] Keywords: topotecan; bioavailability; topoisomerase I inhibitor Topotecan (SKF 104864) [(S)-9-dimethylaminomethyl-10- hydroxycamptothecin hydrochloride] is a semisynthetic water-soluble analogue of camptothecin (Hsiang and Liu, 1988). Like camptothecin, topotecan is a specific inhibitor of topoisomerase I (Hsiang and Liu, 1988). Topotecan incorporates a stable basic side-chain at the 9-position of the A-ring, which provides water solubility at acid pH. Topotecan is converted to its lactone ring-opened hydrolysis product (hydroxy acid), which reversible pathway is strongly pH dependent. The biological activity of the hydroxy acid has not been fully elucidated (Kingsbury et al., 1991). […] In the present study the bioavailability and pharmacoki- netics of oral topotecan are explored in patients with solid tumours with the aim of providing a basis for further development of clinical studies using chronic oral topotecan. […] The performance status had to be < 2 on the WHO scale and life expectancy >3 months. The minimum age was 18 and maximum age 75 years. The haemoglobulin had to be >6.0 mmol 1 -1 (9 g dl-'), WBC? 3500 ul -', granulocytes , 1000 l-d and platelets >100 000 jil-'. The serum creatinine had to be < 140 imol 1-1 (1.6 mg dl-'), the serum bilirubin <26 µmol 1` (1.5 mg dl-') and alkaline phospha- tase and transaminases <2 times the upper normal limit if liver metastases were absent or -5 times the upper normal limit if liver metastases were present. Topotecan was administered orally and intravenously at a dose of 1.5 mg m-2. Topotecan as supplied for intravenous infusion was diluted for oral dosage. […] The dose was placed in a beaker containing 100 ml of 5% dextrose injection solution. On day 1, patients were asked to drink the entire contents. Subsequently, an additional 100 ml of 5% dextrose injection solution was added to the beaker and taken by the patient. On day 2 topotecan was administered at the same dose as a continuous 30 min intravenous infusion.

A short description of series [3]: Acute tolerability of oral drinking solution and i.v. infusion of topotecan in patients. The series is classed as in vivo, human. From the text:
British Journal of Cancer (1996) 73, 1268-1271 ff* (C) 1996 Stockton Press All rights reserved 0007-0920/96 $12.00 Bioavailability and pharmacokinetics of oral topotecan: a new topoisomerase I inhibitor JHM Schellens', GJ Creemers', JH Beijnen2, H Rosing2, M de Boer-Dennert', M McDonald3, B Davies4 and J Verweij' 'Department of Medical Oncology, Rotterdam Cancer Institute, 3075 EA Rotterdam, The Netherlands; 2Slotervaart Hospital, Amsterdam, The Netherlands; 3SmithKline & Beecham, UK; 4SmithKline & Beecham, USA. […] The oral dose of 1.5 mg m 2 was administered as a drinking solution of 200 ml on day 1. The i.v. dose of 1.5 mg m-2 was administered as a 30 min continuous infusion on day 2. The bioavailability was calculated as the ratio of the oral to i.v. area under the curve (AUC) calculated up to the last measured time point. […] Keywords: topotecan; bioavailability; topoisomerase I inhibitor Topotecan (SKF 104864) [(S)-9-dimethylaminomethyl-10- hydroxycamptothecin hydrochloride] is a semisynthetic water-soluble analogue of camptothecin (Hsiang and Liu, 1988). Like camptothecin, topotecan is a specific inhibitor of topoisomerase I (Hsiang and Liu, 1988). Topotecan incorporates a stable basic side-chain at the 9-position of the A-ring, which provides water solubility at acid pH. […]

Setting [4] is: Table I, patients 1-12 in order, oral 1.5 mg m-2.

“And” between values parts separate entries of the source, which are not always exact repeats. Identical values can stand only once. Counter-ions that a name gives are not always drawn.

For `CC[C@@]1(O)C(=O)OCc2c1cc1n(c2=O)Cc2cc3c(CN(C)C)c(O)ccc3nc2-1` [topotecan, (S)-9-dimethylaminomethyl-10-hydroxycamptothecin hydrochloride], in series [1], the “bioavailability after oral administration in dogs” value is recorded as 35.7%. Besides, in series [2] (Table I, patients 1-12 in order, i.v. 1.5 mg m-2), the “Cmax, i.v. (individual patients)” value is 41.08 ng/mL and 35.92 ng/mL and 43.86 ng/mL and 33.40 ng/mL and 47.18 ng/mL and 40.35 ng/mL and 41.41 ng/mL and 41.21 ng/mL and 42.11 ng/mL and 25.35 ng/mL and 19.57 ng/mL. Also, the “Cmax, oral (individual patients)” value in series [2] (setting [4]) was 5.93 ng/mL and 5.16 ng/mL and 5.45 ng/mL and 5.71 ng/mL and 7.14 ng/mL and 4.71 ng/mL and 5.08 ng/mL and 6.48 ng/mL and 6.67 ng/mL and 5.38 ng/mL and 6.93 ng/mL. Further, the “Tmax, oral (individual patients)” value in series [2] (setting [4]) is 0.5 h (3×) and 1.03 h (2×) and 0.33 h and 1.13 h and 0.52 h and 0.55 h and 2.5 h and 1.5 h and 1.0 h. Besides, the “F (individual patients)” value in series [2] (Table I, patients 1-12 in order, ratio AUC(t) oral/i.v.) was 21% and 30% (2×) and 25% and 38% and 23% (2×) and 22% and 45% and 34% and 35% and 36%. The “plasma concentration on day 2, before administration of the second dose” value in series [2] (day after oral dose 1.5 mg m-2, LLQ 0.1 ng ml-1) is recorded as “undetectable”. In addition, the Cmax in series [2] (human, in vivo, iv, 1.5 mg, i.v. (individual patients)) was 41.8 ng/mL; in series [2] (human, plasma, iv, 1.5 mg, mean of 12 patients, i.v. 1.5 mg m-2), 37.8 ng/mL; in series [2] (human, plasma, po, 1.5 mg, mean of 12 patients, oral 1.5 mg m-2), 5.88 ng/mL; in series [2] (human, plasma, po, 1.5 mg, oral (individual patients), Table I, patients 1-12 in order, oral 1.5 mg m-2), 5.95 ng/mL. For the same compound, the clearance in series [2] (human, plasma, iv, 1.5 mg) was 535 to 1070 mL/min; in series [2] (human, plasma, iv, 1.5 mg m-2), 824 ± 154 mL/min. The half-life in series [2] (human, plasma, iv, 1.5 mg m-2, half-life for the initial decline of the plasma concentration-time curve (t1/2 alpha), mean ± s.d., ten patients fitted with a biexponential model) was 0.186 h; in series [2] (human, plasma, iv, 1.5 mg m-2, t1/2 beta, after i.v., the patient with the highest bioavailability of 45%), 1.8 h; in series [2] (human, plasma, iv, 1.5 mg m-2, t1/2 beta, mean ± s.d., n=12) it was 2.4 h; in series [2] (human, plasma, iv, 1.5 mg m-2, t1/2 beta, range, n=12), 1.72 to 2.93 h; in series [2] (human, plasma, po, 1.5 mg m-2, t1/2 beta, after oral administration, the patient with the highest bioavailability of 45%), 3.2 h; in series [2] (human, plasma, po, 1.5 mg m-2, t1/2 beta, mean, n=10) it was 2.43 h. In series [2] (human, plasma, po, 1.5 mg m-2, t1/2 beta, range, n=10), this compound came in with a half-life of 1.02 to 3.2 h. In addition, the Vd was 128 L in series [2] (human, plasma, iv, mean ± s.d., n=12) and 86 to 231 L in series [2] (human, plasma, iv, range, n=12). Moreover, the time of peak concentration (Tmax) is 0.33 to 1.5 h in series [2] (human, plasma, po, 1.5 mg m-2, Tmax, range of the other 11 patients, without the patient with Tmax 2.5 h); 0.78 h in series [2] (human, plasma, po, 1.5 mg, time to maximum plasma concentration (Tmax), median, oral 1.5 mg m-2, 12 patients); 0.33 to 2.5 h in series [2] (human, plasma, po, 1.5 mg, time to maximum plasma concentration (Tmax), range, oral 1.5 mg m-2, 12 patients). In addition, the “AUC(t), range” value in series [2] (i.v. 1.5 mg m-2) lay within 32.50 to 73.68 ng/h/mL; in series [2] (oral 1.5 mg m-2), 9.38 to 25.37 ng/h/mL. The “AUCoo, range” value in series [2] (i.v. 1.5 mg m-2) lay within 43.70 to 81.08 ng/h/mL. In series [2] (mean (s.d. 7.7), oral drinking solution 1.5 mg m-2 day 1 vs 30 min i.v. infusion 1.5 mg m-2 day 2, 12 patients), the “bioavailability (ratio of oral to i.v. AUC(t))” value turned out to be 30%. The “bioavailability if curves extrapolated to infinity (AUCoo)” value in series [2] (mean (s.d. 11.5), oral vs i.v. 1.5 mg m-2) is recorded as 32%. Besides, the “AUC(t)” value in series [2] (mean ± s.d., i.v. 1.5 mg m-2) worked out at 49.87 ± 10.87 ng/h/mL; in series [2] (mean ± s.d., oral 1.5 mg m-2, up to latest measured time point) it was 15.18 ± 5.51 ng/h/mL. For the same compound, the “total plasma clearance (Cl)” value in series [2] (mean ± s.d., i.v. 1.5 mg m-2 30 min infusion, n=12) is listed as 824+ 154 ml min-1. The AUCoo in series [2] (mean ± s.d., i.v. 1.5 mg m-2, extrapolated to infinity) is 61.02 ± 10.57 ng/h/mL. The “bioavailability (ratio of oral to i.v. AUC(t)), range” value in series [2] (range over 12 patients, oral vs i.v. 1.5 mg m-2) is given as 21-45%. The acute side-effects result in series [3] (i.v. and oral 1.5 mg m-2, 12 patients) is on record as “Neither i.v. nor oral administration was associated with any significant acute side-effect”. Moreover, in series [3] (oral 1.5 mg m-2 in 200 ml, 12 patients), the “tolerability of the oral drinking solution” value is “well tolerated”.
As to `CC[C@@](O)(C(=O)O)c1cc2n(c(=O)c1CO)Cc1cc3c(CN(C)C)c(O)ccc3nc1-2` [hydroxy acid], in series [2] (human, in vivo), the “plasma concentration-time curves of the hydroxy acid compared with topotecan” value is listed as “higher than those of topotecan”; the “ratio of the AUC(t) of the hydroxy acid after oral and i.v. administration” value was found to be 0.38 ± 0.12. For the same compound, in series [2] (human, in vivo, iv), the “Cmax of the hydroxy acid” value worked out at 18.97 ± 2.44 ng/mL and the “terminal t1/2 of the hydroxy acid” value was 3.22 ± 0.73 h. The “AUC(t) of hydroxy acid, i.v.” value in series [2] (human, in vivo, iv, 1.5 mg) came out at 73.25 ng/h/mL. In series [2] (human, in vivo, po), the “Cmax of the hydroxy acid” value was 7.50 ± 2.57 ng/mL; the “Cmax of the hydroxy acid, range” value is given as 4.66 + 12.32 ng ml-1; the “plasma concentration on day 2, before administration of the second dose” value is “undetectable”; the “terminal t1/2 of the hydroxy acid” value was 2.82 ± 0.85 h. Moreover, the “AUC(t) of hydroxy acid, oral” value in series [2] (human, in vivo, po, 1.5 mg) amounted to 31.41 ng/h/mL.
